Source: publication PMC7313537 (PLoS ONE, 2020)
Like-named read-outs stand apart in the source and are kept apart here.

How the values were obtained:
CLK3 = CLK3 (Homo sapiens, UniProt P49761); experiment: Enzyme selectivity panel; format: biochemical; details: 1 mM ATP
Procedure: (§1) The kinase assays were carried out at room temperature in HEPES 50 mM, pH 7.0, NaN3 0.02%, BSA 0.01%, Orthovanadate 0.1 mM, DTT 1 mM, MgCl2 10 mM in a final volume of 10 µL. Test compounds were transferred to the plate wells by ECHO liquid handler (Labcyte, San Jose, CA) with 0.5% dimethyl sulfoxide (DMSO) in the final assay. Peptide/kinase mixtures were diluted in the appropriate enzymatic buffer and 5µL of the mixture was added to a 384-well small volume black plate. Reactions were initiated by the addition of 5 µL ATP in reaction buffer, the final reaction mixture consisted of 500 nM peptide substrate, 1 mM ATP, and appropriate amount of specific kinase. […] The plates were then sealed and centrifuged at 1800 rpm for 2 minutes. […] Half maximal inhibitory concentration (IC50) determination was performed by fitting the curve of percent control activity versus the log of the compound concentration using the GraphPad Prism 6.0 software.

DDR2 = target: T1, DDR2 (Homo sapiens, UniProt Q16832); experiment: Enzyme selectivity panel; format: biochemical; details: 1 mM ATP
T1 construct: purchased In-house HTRF panel (56 kinases) and PerkinElmer (161-kinase panel)
Procedure: as §1

FLT3 = FLT3 (Homo sapiens, UniProt P36888); experiment: Enzyme selectivity panel; format: biochemical; details: 1 mM ATP
Procedure: as §1

IKKA = IKKA (Homo sapiens, UniProt O15111); experiment: Enzyme selectivity panel; format: biochemical; details: 1 mM ATP
Procedure: as §1

LOK = LOK (Homo sapiens, UniProt O94804); experiment: Enzyme selectivity panel; format: biochemical; details: 1 mM ATP
Procedure: as §1

PHKG2 = target: T2, PHKG2 (Homo sapiens, UniProt P15735); experiment: Enzyme selectivity panel; format: biochemical; details: 1 mM ATP
T2 construct: purchased In-house HTRF panel (56 kinases) and PerkinElmer (161-kinase panel)
Procedure: as §1

PIM1 = target: T3, PIM1 (Homo sapiens, UniProt P11309); experiment: Enzyme selectivity panel; format: biochemical; details: 1 mM ATP
T3 construct: purchased In-house HTRF panel (56 kinases) and PerkinElmer (161-kinase panel)
Procedure: as §1

PKCD = PKCD (Homo sapiens, UniProt Q05655); experiment: Enzyme selectivity panel; format: biochemical; details: 1 mM ATP
Procedure: as §1

RPS6KB1 = RPS6KB1 (Homo sapiens, UniProt P23443); experiment: Enzyme selectivity panel; format: biochemical; details: 1 mM ATP
Procedure: as §1

SGK1 = target: T4, SGK1 (Homo sapiens, UniProt O00141); experiment: Enzyme selectivity panel; format: biochemical; details: 1 mM ATP
T4 construct: purchased In-house HTRF panel (56 kinases) and PerkinElmer (161-kinase panel)
Procedure: as §1

ZAP70 = ZAP70 (Homo sapiens, UniProt P43403); experiment: Enzyme selectivity panel; format: biochemical; details: 1 mM ATP
Procedure: as §1

RT-112 (bladder cancer) = experiment: Cell viability assay (CellTiter-Glo); format: cell-based; details: Homo sapiens, FGFR3-TACC3 fusion, 72 hours, read-out: Mean GI50 ± S.D.
KMS12BM = experiment: Cell viability assay (CellTiter-Glo); format: cell-based; details: Homo sapiens, KMS-12-BM; Myeloma; lacking FGFR alterations
HEK293 = experiment: Cell viability assay (CellTiter-Glo); format: cell-based; details: Homo sapiens, Embyronic kidney, lacking FGFR alterations
[1] = Intrinsic clearance in liver microsomes; format: in vitro ADME
Procedure: Aliquots were taken at 0, 10, 20, and 30 minutes and denatured with methanol. After centrifugation to remove the denatured proteins, the resulting supernatants were analyzed by LC/MS

[2] = Plasma protein binding (equilibrium dialysis); format: in vitro ADME; details: read-out: PPB (% free)
Procedure: The final DMSO content in all cases was <0.1%. Each condition was incubated in duplicate. For protein binding determination, the Multi-Equilibrium Dialyzer System™ and diachema membranes from Harvard Apparatus (Holliston, MA) were utilized. Equilibrium dialysis was carried out in Teflon cells separated by a dialysis membrane with a molecular weight cutoff of 10,000 Daltons. […] The cells were rotated at a speed of 12 rpm in a 37°C water bath for 2 hours. Following the incubation period, buffer and serum/plasma samples were drained separately into empty preweighed glass test tubes. The tubes were reweighed, and the exact volume of sample recovered from each side of the dialysis cell was calculated using the mass. A 75-μL aliquot of each sample (buffer or serum/plasma) was added to a 96-well plate containing a protein precipitation solution of 100% methanol and 0.2 μM dextrorphan as the internal standard; 75 μL of blank buffer or plasma/serum was added to the plate to ensure identical composition across all samples. Prior to analysis, samples prepared in the 96-well plate were vigorously vortexed for approximately 5 minutes and centrifuged for 10 minutes at ~1700 × g to remove denatured proteins and particulate matter. The supernatant was transferred and analyzed using LC-MS/MS.

Pharmacokinetic analyses = format: in vivo, Sprague Dawley rats; details: male rat
Procedure: The i.v. formulation in rats was 5% dimethylacetamide (DMAC) and 25% sulfobutyl ether β-cyclodextrin in acidified saline (pH 3). The i.v. formulation in dogs and monkeys was 5% DMAC and 20% sulfobutyl ether β-cyclodextrin in saline. The oral formulation in all species was 5% DMAC in 0.5% methylcellulose aqueous solution. For rats, blood samples were collected at predose, 5 (i.v. dosing only), 15, and 30 minutes, and 1, 2, 4, 6, 8, and 24 hours. For dogs, blood samples were collected at predose, 2.5 and 5 (i.v. dosing only), 15, and 30 minutes, and 1, 2, 3, 4, 6, 8, 12, and 24 hours postdose. For monkeys, blood samples were collected at predose, 5 and 10 (i.v. dosing only), 15, and 30 minutes, and 1, 2, 3, 4, 6, 8, 12, 16, and 24 hours postdose. Collected blood samples were processed to extract plasma by centrifugation and stored at −20 °C until analysis.
The plasma was protein precipitated and the diluted supernatant was analyzed using LC/MS/MS. A standard curve was prepared in plasma from 1 to 5,000 nM and processed in the same manner as the samples. The pharmacokinetic parameters were determined using WinNonLin 6.3.

[3] = Plasma exposure after single oral dose in KATO III tumor-bearing mice; format: in vivo, mouse; details: single oral dose of 0.1, 1, and 10 mg/kg
Procedure: (A) Pharmacokinetic profile of INCB054828 in the mouse. […] (B) Pharmacokinetic-pharmacodynamic analyses in KATO III tumors. […] Plasma was subjected to analytical analysis and phospho-FGFR2 in tumor homogenate was determined by ELISA.

[4] = tested on: serum inorganic phosphate; experiment: Serum phosphate pharmacodynamic study; format: in vivo, C57BL/6 mice; details: single oral dose
Procedure: Female C57BL/6 mice, 5–8 weeks of age, were obtained from Charles River Laboratories. […] Twenty-four hours after dosing, mice were anesthetized under isoflurane. Approximately 200 μL of whole blood was collected by capillary retro-orbital sinus sampling into lithium heparin collection tubes (RAM Scientific, Yonkers, NY). Blood was maintained at 4°C and transported for analysis to DuPont Haskell Global Centers for Health and Environmental Science (Newark, DE). Each sample was analyzed for levels of inorganic phosphate within 4 hours of receipt. Serum clinical chemistry parameters were determined using an Olympus® AU640 clinical chemistry analyzer (Beckman Coulter, Brea, CA). Both phosphate and calcium are manufacturer-supplied reagents and methods.

[5] = tested on: myeloid/lymphoid neoplasm expressing CEP110-FGFR1; set-up: method as in PMID 29767670; details: single patient, CEP110-FGFR1 fusion ref 40; cited from earlier work
[6] = Sprague Dawley, plasma, oral 2 mg/kg

T2 sequence (P15735 whole entry, species assumed): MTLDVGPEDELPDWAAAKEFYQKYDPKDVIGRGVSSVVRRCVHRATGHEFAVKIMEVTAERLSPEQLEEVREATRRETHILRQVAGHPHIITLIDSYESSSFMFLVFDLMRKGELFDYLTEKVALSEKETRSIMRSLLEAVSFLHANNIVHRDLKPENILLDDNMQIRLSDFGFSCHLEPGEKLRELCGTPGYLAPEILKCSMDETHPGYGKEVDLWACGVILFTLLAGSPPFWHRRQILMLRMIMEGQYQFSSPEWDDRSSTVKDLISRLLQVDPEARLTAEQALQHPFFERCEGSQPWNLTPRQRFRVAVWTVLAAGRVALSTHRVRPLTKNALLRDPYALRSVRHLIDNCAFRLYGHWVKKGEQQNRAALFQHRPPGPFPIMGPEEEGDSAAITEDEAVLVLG
LOK, sequence (O94804 whole entry, species assumed): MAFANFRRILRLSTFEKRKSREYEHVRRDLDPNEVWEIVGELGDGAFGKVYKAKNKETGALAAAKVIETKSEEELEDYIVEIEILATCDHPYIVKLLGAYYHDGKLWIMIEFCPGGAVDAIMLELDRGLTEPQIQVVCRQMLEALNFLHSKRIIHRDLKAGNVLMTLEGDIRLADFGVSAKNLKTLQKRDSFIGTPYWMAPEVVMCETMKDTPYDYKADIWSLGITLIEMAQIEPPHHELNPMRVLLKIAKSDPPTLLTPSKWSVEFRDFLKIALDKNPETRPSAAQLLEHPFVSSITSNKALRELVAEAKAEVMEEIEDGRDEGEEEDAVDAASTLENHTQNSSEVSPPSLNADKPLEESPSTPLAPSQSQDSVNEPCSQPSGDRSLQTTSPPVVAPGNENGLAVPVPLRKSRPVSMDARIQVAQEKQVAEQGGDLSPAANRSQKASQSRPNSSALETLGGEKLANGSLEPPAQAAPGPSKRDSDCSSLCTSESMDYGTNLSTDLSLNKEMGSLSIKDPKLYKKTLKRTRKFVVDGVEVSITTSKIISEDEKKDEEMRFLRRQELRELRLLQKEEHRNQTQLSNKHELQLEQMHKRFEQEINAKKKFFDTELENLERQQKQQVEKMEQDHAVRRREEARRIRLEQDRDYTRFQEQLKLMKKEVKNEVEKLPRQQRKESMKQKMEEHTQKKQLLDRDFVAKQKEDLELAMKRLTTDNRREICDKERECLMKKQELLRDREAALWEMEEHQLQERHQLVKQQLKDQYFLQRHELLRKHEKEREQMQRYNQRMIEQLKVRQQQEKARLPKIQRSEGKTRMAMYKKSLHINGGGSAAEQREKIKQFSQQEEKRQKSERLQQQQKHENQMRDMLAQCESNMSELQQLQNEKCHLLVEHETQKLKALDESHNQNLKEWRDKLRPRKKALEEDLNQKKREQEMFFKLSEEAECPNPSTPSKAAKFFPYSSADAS
ZAP70, sequence (P43403 whole entry, species assumed, the tested form may be a part): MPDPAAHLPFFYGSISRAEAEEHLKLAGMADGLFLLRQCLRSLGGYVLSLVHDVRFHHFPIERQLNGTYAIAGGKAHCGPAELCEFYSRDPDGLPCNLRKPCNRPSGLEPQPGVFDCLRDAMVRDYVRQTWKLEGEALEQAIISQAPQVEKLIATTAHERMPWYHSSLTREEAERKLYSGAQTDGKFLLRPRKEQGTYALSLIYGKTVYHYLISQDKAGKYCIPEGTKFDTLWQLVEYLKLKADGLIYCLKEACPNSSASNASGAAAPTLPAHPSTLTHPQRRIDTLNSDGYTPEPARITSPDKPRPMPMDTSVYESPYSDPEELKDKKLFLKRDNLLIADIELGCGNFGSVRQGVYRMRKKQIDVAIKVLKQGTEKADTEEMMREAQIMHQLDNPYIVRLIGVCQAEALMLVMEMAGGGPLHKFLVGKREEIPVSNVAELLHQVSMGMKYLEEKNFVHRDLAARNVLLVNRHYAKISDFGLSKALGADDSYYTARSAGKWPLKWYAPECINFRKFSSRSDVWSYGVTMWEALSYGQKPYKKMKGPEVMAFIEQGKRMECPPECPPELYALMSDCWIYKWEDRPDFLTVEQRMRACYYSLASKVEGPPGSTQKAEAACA
T4 sequence (O00141 whole entry, species assumed): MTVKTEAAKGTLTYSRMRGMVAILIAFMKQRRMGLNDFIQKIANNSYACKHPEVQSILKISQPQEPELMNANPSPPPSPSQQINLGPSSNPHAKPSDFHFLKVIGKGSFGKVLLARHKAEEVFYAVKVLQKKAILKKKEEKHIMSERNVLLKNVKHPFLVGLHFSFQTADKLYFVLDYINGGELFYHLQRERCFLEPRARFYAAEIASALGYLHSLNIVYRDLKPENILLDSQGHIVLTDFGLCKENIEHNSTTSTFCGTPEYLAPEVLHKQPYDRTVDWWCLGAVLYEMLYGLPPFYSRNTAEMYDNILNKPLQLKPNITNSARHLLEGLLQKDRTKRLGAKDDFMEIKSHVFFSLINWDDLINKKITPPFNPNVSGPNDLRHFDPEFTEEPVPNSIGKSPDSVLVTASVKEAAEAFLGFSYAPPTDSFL
CLK3, sequence (P49761 whole entry, species assumed): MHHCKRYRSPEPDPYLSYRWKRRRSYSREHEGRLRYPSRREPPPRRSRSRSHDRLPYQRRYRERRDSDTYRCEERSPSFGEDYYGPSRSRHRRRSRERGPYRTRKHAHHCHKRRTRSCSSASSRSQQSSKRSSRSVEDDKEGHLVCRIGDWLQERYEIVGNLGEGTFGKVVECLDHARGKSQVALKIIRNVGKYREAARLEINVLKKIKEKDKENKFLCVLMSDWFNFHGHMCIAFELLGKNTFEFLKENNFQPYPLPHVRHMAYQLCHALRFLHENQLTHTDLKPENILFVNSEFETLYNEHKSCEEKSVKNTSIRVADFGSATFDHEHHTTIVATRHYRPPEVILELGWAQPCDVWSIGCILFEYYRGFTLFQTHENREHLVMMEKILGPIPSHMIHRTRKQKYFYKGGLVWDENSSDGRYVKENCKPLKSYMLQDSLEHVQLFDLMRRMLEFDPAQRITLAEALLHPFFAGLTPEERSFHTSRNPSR
FLT3, sequence (P36888 27-993, species assumed): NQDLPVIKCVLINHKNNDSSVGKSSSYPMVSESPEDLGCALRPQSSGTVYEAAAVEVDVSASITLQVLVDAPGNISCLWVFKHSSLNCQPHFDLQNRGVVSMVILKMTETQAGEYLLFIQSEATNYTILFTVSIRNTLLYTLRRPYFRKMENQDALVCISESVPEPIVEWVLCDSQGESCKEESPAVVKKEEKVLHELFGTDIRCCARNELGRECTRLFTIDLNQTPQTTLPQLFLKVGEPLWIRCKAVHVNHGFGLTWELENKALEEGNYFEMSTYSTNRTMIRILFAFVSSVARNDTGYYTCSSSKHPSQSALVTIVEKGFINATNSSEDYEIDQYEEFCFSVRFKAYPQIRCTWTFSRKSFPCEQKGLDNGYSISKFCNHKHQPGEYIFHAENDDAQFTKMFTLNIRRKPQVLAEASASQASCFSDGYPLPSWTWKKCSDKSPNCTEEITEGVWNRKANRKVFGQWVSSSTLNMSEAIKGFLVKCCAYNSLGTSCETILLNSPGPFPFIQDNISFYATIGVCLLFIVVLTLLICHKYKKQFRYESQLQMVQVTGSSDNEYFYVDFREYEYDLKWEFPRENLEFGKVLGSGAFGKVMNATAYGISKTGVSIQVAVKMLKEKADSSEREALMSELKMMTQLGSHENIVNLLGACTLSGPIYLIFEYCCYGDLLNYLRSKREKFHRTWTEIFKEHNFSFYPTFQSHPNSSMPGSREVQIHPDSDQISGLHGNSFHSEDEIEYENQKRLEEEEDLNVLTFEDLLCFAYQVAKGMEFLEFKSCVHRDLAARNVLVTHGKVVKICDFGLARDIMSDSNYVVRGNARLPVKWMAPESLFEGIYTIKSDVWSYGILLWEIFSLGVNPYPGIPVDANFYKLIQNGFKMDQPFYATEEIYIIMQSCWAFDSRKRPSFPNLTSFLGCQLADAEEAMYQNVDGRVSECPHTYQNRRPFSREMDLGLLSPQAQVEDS
IKKA, sequence (O15111 whole entry, species assumed): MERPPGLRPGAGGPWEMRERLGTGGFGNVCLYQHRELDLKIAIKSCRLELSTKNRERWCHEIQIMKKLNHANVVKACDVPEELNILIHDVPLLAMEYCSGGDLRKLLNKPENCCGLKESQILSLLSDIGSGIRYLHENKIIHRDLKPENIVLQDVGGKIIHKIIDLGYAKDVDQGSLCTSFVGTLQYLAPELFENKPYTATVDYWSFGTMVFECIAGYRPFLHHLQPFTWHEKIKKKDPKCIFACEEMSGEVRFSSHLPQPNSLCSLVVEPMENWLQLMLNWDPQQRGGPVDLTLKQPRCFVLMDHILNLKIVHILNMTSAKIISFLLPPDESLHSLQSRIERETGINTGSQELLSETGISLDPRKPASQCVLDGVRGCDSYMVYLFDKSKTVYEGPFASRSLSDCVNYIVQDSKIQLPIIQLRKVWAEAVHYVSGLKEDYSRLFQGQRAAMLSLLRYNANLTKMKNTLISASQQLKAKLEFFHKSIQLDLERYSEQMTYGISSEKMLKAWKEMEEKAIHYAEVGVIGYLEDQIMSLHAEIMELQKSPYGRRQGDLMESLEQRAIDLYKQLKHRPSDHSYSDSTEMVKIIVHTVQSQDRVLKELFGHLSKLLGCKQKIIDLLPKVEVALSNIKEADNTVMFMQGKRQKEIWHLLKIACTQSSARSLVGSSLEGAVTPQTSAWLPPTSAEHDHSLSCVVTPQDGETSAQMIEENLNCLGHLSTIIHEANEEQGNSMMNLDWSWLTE
T3 sequence (P11309 whole entry, species assumed): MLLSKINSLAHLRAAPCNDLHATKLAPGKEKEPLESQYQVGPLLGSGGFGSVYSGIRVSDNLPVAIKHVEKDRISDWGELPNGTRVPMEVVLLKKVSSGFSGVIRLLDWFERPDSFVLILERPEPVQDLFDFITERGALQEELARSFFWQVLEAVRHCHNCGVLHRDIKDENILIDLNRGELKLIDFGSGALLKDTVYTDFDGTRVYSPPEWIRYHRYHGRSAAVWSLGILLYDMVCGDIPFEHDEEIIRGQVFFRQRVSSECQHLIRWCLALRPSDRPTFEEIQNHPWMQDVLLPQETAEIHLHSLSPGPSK

CCN1C(=O)N(c2c(F)c(OC)cc(OC)c2F)Cc2cnc3[nH]c(CN4CCOCC4)cc3c21 [INCB054828, pemigatinib]
IC50 (CLK3): > 10 µM
IC50 (DDR2): > 10 µM
IC50 (FLT3): > 10 µM
IC50 (IKKA): > 10 µM
IC50 (LOK): > 10 µM
IC50 (PHKG2): > 10 µM
IC50 (PIM1): > 10 µM
IC50 (PKCD): > 10 µM
IC50 (RPS6KB1): > 10 µM
IC50 (SGK1): > 10 µM
IC50 (ZAP70): > 10 µM
GI50 (RT-112 (bladder cancer)): 7 ± 3 nM
GI50 (KMS12BM): 2890 nM
GI50 (HEK293): > 20 µM
Intrinsic clearance ([1]; human liver microsomes): moderate metabolic stability
CLint scaled at 1 μM ([1]; human, pH 7.4): 13.3 mL/min/kg
fraction unbound at 2 h, 1 μM ([2]; Sprague Dawley, pH 7.4, rat plasma): 0.03
fraction unbound at 2 h, 1 μM ([2]; pH 7.4, human plasma): 0.113
clearance (Pharmacokinetic analyses; Sprague Dawley, plasma, intravenous 1 mg/kg): 17.2 mL/min/kg
Vd (Pharmacokinetic analyses; Sprague Dawley, plasma, intravenous 1 mg/kg, read-out: Vss): 1.85 L/kg
half-life (Pharmacokinetic analyses; Sprague Dawley, plasma, intravenous 1 mg/kg, read-out: t½ (converted)): 240 min
Cmax (Pharmacokinetic analyses; [6]): 2260 nM
bioavailability (Pharmacokinetic analyses; [6]): > 100%
Hepatic ER (Pharmacokinetic analyses; intravenous 1 mg/kg, % of hepatic blood flow): 31%
%F (Pharmacokinetic analyses; oral 2 mg/kg): complete
AUC (Pharmacokinetic analyses; oral 2 mg/kg): 7.67 µM·h
plasma exposures, dose dependence [3]: dose linear
average half maximal effective dose for phosphate induction ([4]; 2 independent experiments): 2.9 mg/kg
serum phosphorus ([4]; 24 hours after dosing): dose-dependent increase
clinical response [5]: complete cytogenetic and hematologic remission
